Data taken from PubChem BioAssay (NCI).
“And” between values parts separate entries of the source, which are not always exact repeats. Identical values can stand only once.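 The compound was tested at five concentrations on cells cultured in 96-well plates, with a 48-hour exposure period. Abbreviation: GI50, concentration required for 50% inhibition of growth. TGI denotes the concentration required for complete inhibition of growth.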

Columns and labels:
Test in all cases: NCI anticancer screen, dose series, 48 h
[1] = test system: SK-MEL-2 melanoma
[2] = test system: K-562 leukemia
[3] = test system: IGROV1 ovarian
[4] = test system: HCT-116 colon
[5] = test system: SNB-75 CNS
[6] = test system: U251 CNS
[7] = test system: UACC-62 melanoma
[8] = test system: CCRF-CEM leukemia
[9] = test system: SF-268 CNS
[10] = test system: NCI/ADR-RES ovarian

Structure (SMILES) | GI50 [1] | TGI [1] | GI50 [2] [µM] | TGI [2] [µM] | GI50 [3] | TGI [3] | GI50 [4] | TGI [4] | GI50 [5] | TGI [5] | GI50 [6] | TGI [6] | GI50 [7] | TGI [7] [µM] | GI50 [8] | TGI [8] | GI50 [9] | TGI [9] | GI50 [10] | TGI [10]
COc1ccc(-c2cc(-c3ccccc3)nc(SCCCC(=O)NO)n2)cc1 | 2.3 µM | 9.26 µM | 0.762 | 18 | 1.11 µM | 3.83 µM | 0.531 µM | 12.7 µM | 0.964 µM | 4.95 µM | 1.12 µM | 4.22 µM | 0.756 µM | 2.53 | 0.387 µM | 13.5 µM | 1.66 µM | 5.16 µM | 0.267 µM | 1.6 µM
C=CC(=O)N1CCN(c2ccc3cccc(NC(=O)c4cnc(C)cn4)c3n2)CC1 | 3.37 µM | 27.8 µM | 3.6 | > 100 | 1.29 µM | 15.2 µM | 2.36 µM | 20.1 µM | 0.565 µM | 9.66 µM | 3.85 µM | 36.4 µM | 2.46 µM | 15.6 | 2.08 µM | 8.29 µM | 3.67 µM | 49.2 µM | 3.19 µM | > 100 µM
CC(C)CC(CC1=CCC2CC1C2(C)C)C1=C(O)C(C)(C)C(=O)C(C)(C)C1=O (stereo unspecified) | 0.286 µM | 0.722 µM | 0.334 | > 100 | 0.5 µM | > 100 µM | 0.376 µM | 1.46 µM | 0.24 µM | 9.67 µM | 0.335 µM | > 100 µM | 0.266 µM | 1.17 | 0.353 µM | 3.12 µM | 0.354 µM | > 100 µM | 0.306 µM | 0.979 µM
COC(=O)Cn1c2c(c3c(O)cccc31)C(=O)c1ccccc1-2 | > 100 µM | > 100 µM | > 100 | > 100 | > 100 µM | > 100 µM | > 100 µM | > 100 µM | > 100 µM | > 100 µM | 79.2 µM | > 100 µM | > 100 µM | > 100 | > 100 µM | > 100 µM | > 100 µM | > 100 µM | > 100 µM | > 100 µM
O=C(N/N=C/c1ccc2c(c1)CCC2)c1ccccc1O | – | 60 µM | – | > 100 | – | 55.9 µM | – | 43.7 µM | – | 38 µM | – | 33.7 µM | – | 70.5 | – | > 100 µM | – | 74.7 µM | – | 73.8 µM
N#C/C(=C\c1c(-c2ccccc2)[nH]c2ccccc12)S(=O)(=O)c1ccccc1 | 12.5 µM | 45.3 µM | 0.346 | – | 3.28 µM | 25.9 µM | 1.72 µM | > 76.6 µM | 1.67 µM | 29.4 µM | 2.49 µM | 20.1 µM | 2.38 µM | 24.9 | 2.38 µM | 18.4 µM | 3.4 µM | 20.5 µM | 1.06 µM | 43.4 µM
Cc1ccc(C(=O)Nc2ccc(CN3CCN(C)CC3)c(C(F)(F)F)c2)cc1C#Cc1cnc2cccnn12 | 0.217 µM and 0.492 µM | 0.579 µM and 1.43 µM | – | – | 0.272 µM and 0.269 µM | 1.28 µM and 1.81 µM | 0.235 µM and 0.464 µM | 1.05 µM and 3.43 µM | 0.377 µM and 1.02 µM | 1.66 µM and 3.03 µM | 0.473 µM and 1.22 µM | 1.68 µM and 3.94 µM | 0.306 µM and 1.06 µM | 1.52 | 0.618 µM and 1.65 µM | 5.21 µM and 5.63 µM | 0.474 µM and 0.73 µM | 2.06 µM and 4.27 µM | 0.387 µM and 1.03 µM | 2.15 µM and 4.54 µM
CCN1CCC(CCOC)(CN2c3ccccc3Sc3ccc(Cl)cc32)C1 (stereo unspecified) | 2.54 µM | 4.74 µM | – | – | 1.97 µM | 3.99 µM | 1.86 µM | 3.32 µM | 2.25 µM | 5.8 µM | 1.89 µM | 3.64 µM | 2.05 µM | 3.81 | 3.57 µM | > 100 µM | 2.73 µM | 8.67 µM | 1.73 µM | 3.89 µM
Clc1cc(Cl)c(OCC#CI)cc1Cl | 7.98 µM | 21.3 µM | 3.49 | 18.9 | – | – | 1.75 µM | 3.47 µM | 6.13 µM | 20 µM | 15.4 µM | 29.6 µM | 5.05 µM | 19.4 | 2.88 µM | > 100 µM | 11 µM | 23.4 µM | 2.79 µM | 9.66 µM
O=c1[nH]c2ccccc2nc1-c1c[nH]c2ccccc12 | > 100 µM | > 100 µM | > 100 | > 100 | 1.26 µM | > 100 µM | > 100 µM | > 100 µM | 2.93 µM | > 100 µM | > 100 µM | > 100 µM | – | – | > 100 µM | > 100 µM | > 100 µM | > 100 µM | > 100 µM | > 100 µM
